Drawing on patent publication US12673041B2, “4-aminobut-2-enamide derivatives and salt thereof” (TAIHO PHARMACEUTICAL CO., LTD., priority 2019, dated 2026), this text covers IC50 and binding rate for 14 molecules.

In assay [1] the target is T1, GMPPNP-bound KRAS G12C protein and cRAF RAS-binding domain (cRAF-RBD) (Homo sapiens, UniProt P01116, G12C).
T1 construct: made in house; host or cells: E. coli
The experiment in a line: Inhibitory activity on interaction between KRAS G12C and cRAF (Alpha technology). Type of assay: biochemical. The following applies: GMPPNP-bound KRAS G12C incubated with compound at 25° C. for 1 hour, then cRAF-RBD, Alpha signal; read-out: IC50. In a few lines: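 GMPPNP-loaded His-KRAS G12C (aa 1-169) preincubated 1 h at 25 °C with compound (pH 7.5 Tris, 1 mM MgCl2, TCEP, Tween 20), then cRAF-RBD (aa 50-132) and Alpha reagents added for 1.5 h at RT. Inhibition scaled between DMSO (0%) and GDP-bound KRAS (100%); IC50 by curve fitting.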

In assay [2] the target is Gppcp-bound recombinant K-Ras4B G12C mutant protein (amino acids 1-169, C51S/C80L/C118S) (Homo sapiens, UniProt P01116, C118S/C51S/C80L/G12C). In words: KRASG12C binding assay (LC-MS compound binding rate). The following applies: test compound final concentration 0.5 μM, 25° C., 1 hour. In a few lines: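 Gppcp-bound K-Ras4B G12C (aa 1-169, C51S/C80L/C118S) at 50 nM in 1×TBS, 0.1 mM TCEP, 0.25 mM MgCl2, 50 μM Gppcp was incubated 1 hour at 25° C with compound at 0.5 μM final. Intact-protein LC-MS gave binding rate as single-adduct signal over total KRAS signal, graded A (≥80%) to E (<20%).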

The subject of another assay is MIA PaCa-2 cells. In words: Growth inhibition activity on KRAS-G12C mutant cell line (MIA PaCa-2). The format is cell-based. The following applies: Homo sapiens, 72 h; MIA PaCa-2, 3-day culture, CellTiter-Glo 3D. The protocol:
MIA PaCa-2 cells (given by Sumitomo Dainippon Pharma Co., Ltd.), which are a KRAS-G12C mutant human pancreas cancer cell line, were suspended in a 10% fetal bovine serum-containing RPMI1640 medium (manufactured by Fujifilm Wako Pure Chemical Corporation.). The cell suspension was seeded into each well of a 384-well U bottom microplate and cultured in an incubator containing 5% CO2 gas at 37° C. for 1 day. The compounds obtained in the “Preparation of Compounds” section were used as test compounds and were dissolved in DMSO, respectively, and each test compound was diluted with DMSO to give a concentration 500 times the final concentration. The resultant solution of the test compound in DMSO was diluted with the medium used for suspending cells and added to each well of the cell-culture plate to give a DMSO final concentration of 0.2%, followed by culture in an incubator containing 5% CO2 gas at 37° C. for another 3 days. The cell count after 3-day culture in the presence of the test compound was measured using CellTiter-Glo 3D Reagent (manufactured by Promega Corporation). All wells were added with CellTiter-Glo 3D Reagent and mixed for 10 minutes. 30 minutes after mixing, luminescence was measured by a plate reader. The growth inhibition rate was calculated from the following equation, and the concentration of the test compound at which 50% inhibition was achieved (IC50 (nM)) was determined. […] Growth Inhibition Rate (%)=(C−T)/(C)×100 • T: the emission intensity in a well into which a test compound was added. • C: the emission intensity in a well into which a test compound was not added.
A general note: ATP-based viability assays read luminescence as a measure of living cells.

pIC50: −log10 of the molar value.

Consider `CO[C@H]1CC[C@H](NC/C=C/C(=O)Nc2ccc(C(=O)Nc3cccc(-c4cc5nc6n(c5cc4C)CCC6)n3)cc2C#N)CC1` [Example 3, 3-cyano-4-((E)-4-(((1r,4r)-4-methoxycyclohexyl)amino)but-2-enamido)-N-(6-(7-methyl-2,3-dihydro-1H-benzo[d]pyrrolo[1,2-a]imidazol-6-yl)pyridin-2-yl)benzamide], for which the pIC50 (usually the negative decadic logarithm of the IC50, by convention in mol/L) in assay [1] is 7.30; in the assay on MIA PaCa-2 cells, 7.08. Moreover, the binding rate result in assay [2] is “B (a binding rate of 60% or more and less than 80% is rated “B”)”.
As to `CO[C@H]1CC[C@H](NC/C=C/C(=O)Nc2ccc(C(=O)c3cnc4c(-c5cc6ncn(C)c6cc5C(F)(F)F)cccn34)cc2C#N)CC1` [Example 80, (E)-N-(2-cyano-4-(8-(1-methyl-6-(trifluoromethyl)-1H-benzo[d]imidazol-5-yl)imidazo[1,2-a]pyridine-3-carbonyl)phenyl)-4-(((1r,4r)-4-methoxycyclohexyl)amino)but-2-enamide], the pIC50 in assay [1] is 7.57; with MIA PaCa-2 cells, 6.72. Moreover, the binding rate entry in assay [2] is listed as “A (A binding rate of 80% or more is rated “A”)”.
With `Cn1cnc2cc(-c3cccn4c(C(=O)c5ccc(NC(=O)/C=C/[C@@H]6CCCN6)c(C#N)c5)ccc34)c(C(F)(F)F)cc21` [Example 44, (S,E)-N-(2-cyano-4-(8-(1-methyl-6-(trifluoromethyl)-1H-benzo[d]imidazol-5-yl)indolizine-3-carbonyl)phenyl)-3-(pyrrolidin-2-yl) acrylamide], the pIC50 is 7.21 in assay [1] and 6.46 in the assay with MIA PaCa-2 cells. Moreover, in assay [2], the binding rate entry is given as “A (A binding rate of 80% or more is rated “A”)”.
Regarding `CCc1cc2c(cc1-c1cccc(NC(=O)c3ccc(NC(=O)/C=C/CN[C@H]4CC[C@H](OC)CC4)c(C#N)c3)c1)nc1n2CCC1` [Example 32, 3-cyano-N-(3-(7-ethyl-2,3-dihydro-1H-benzo[d]pyrrolo[1,2-a]imidazol-6-yl)phenyl)-4-((E)-4-(((1r,4r)-4-methoxycyclohexyl)amino)but-2-enamido)benzamide], the pIC50 in assay [1] was 7.57; in the assay on MIA PaCa-2 cells, 6.51. Besides, in assay [2], the binding rate entry was “B (a binding rate of 60% or more and less than 80% is rated “B”)”.
Consider `CCc1nc2cc(-c3cccc4c3CCN4C(=O)c3ccc(NC(=O)/C=C/CN[C@H]4CC[C@H](N5CCCC5)CC4)c(C#N)c3)c(C(F)(F)F)cc2n1C` [Example 29, (E)-N-(2-cyano-4-(4-(2-ethyl-1-methyl-6-(trifluoromethyl)-1H-benzo[d]imidazol-5-yl)indoline-1-carbonyl)phenyl)-4-(((1r,4r)-4-(pyrrolidin-1-yl)cyclohexyl)amino)but-2-enamide], for which the pIC50 in assay [1] was 7.02; with MIA PaCa-2 cells, 6.39. In addition, the binding rate result in assay [2] is on record as “A (A binding rate of 80% or more is rated “A”)”.
Taken in the same sequence, the figures for `CO[C@H]1CC[C@H](NC/C=C/C(=O)Nc2ccc(C(=O)c3ccc4c(-c5cc6ncn(C)c6cc5C(F)(F)F)cccn34)cc2C#N)CC1` [Example 6, (E)-N-(2-cyano-4-(8-(1-methyl-6-(trifluoromethyl)-1H-benzo[d]imidazol-5-yl)indolizine-3-carbonyl)phenyl)-4-(((1r,4r)-4-methoxycyclohexyl)amino)but-2-enamide] were 7.82, 7.37 and “A (A binding rate of 80% or more is rated “A”)”.
Taken in the same sequence, the figures for `Cn1cnc2c(Cl)c(-c3cccn4c(C(=O)c5ccc(NC(=O)/C=C/CNC(C)(C)C)c(C#N)c5)ccc34)c(Cl)cc21` [Example 55, (E)-4-(tert-butylamino)-N-(2-cyano-4-(8-(4,6-dichloro-1-methyl-1H-benzo[d]imidazol-5-yl)indolizine-3-carbonyl)phenyl)but-2-enamide] were 7.68, 6.85 and “A (A binding rate of 80% or more is rated “A”)”.
Turning to `CO[C@H]1CC[C@H](NC/C=C/C(=O)Nc2c(F)cc(C(=O)c3cnc4c(-c5cc6ncn(C)c6cc5C(F)(F)F)cccn34)cc2F)CC1` [Example 68, (E)-N-(2,6-difluoro-4-(8-(1-methyl-6-(trifluoromethyl)-1H-benzo[d]imidazol-5-yl)imidazo[1,2-a]pyridine-3-carbonyl)phenyl)-4-(((1r,4r)-4-methoxycyclohexyl)amino)but-2-enamide], the pIC50 was 7.24 in assay [1] and 6.62 in the assay on MIA PaCa-2 cells. Also, the binding rate entry in assay [2] was “B (a binding rate of 60% or more and less than 80% is rated “B”)”.
Take `CO[C@H]1CC[C@H](NC/C=C/C(=O)Nc2ccc(C(=O)c3ccc4c(-c5cc6ncn(C)c6cc5C(F)F)cccn34)cc2C#N)CC1` [Example 36, (E)-N-(2-cyano-4-(8-(6-(difluoromethyl)-1-methyl-1H-benzo[d]imidazol-5-yl)indolizine-3-carbonyl)phenyl)-4-(((1r,4r)-4-methoxycyclohexyl)amino)but-2-enamide]: the pIC50 in assay [1] is 7.64; in the assay on MIA PaCa-2 cells, 7.15. In addition, in assay [2], the binding rate result is on record as “A (A binding rate of 80% or more is rated “A”)”.
Take `CO[C@H]1CC[C@H](NC/C=C/C(=O)Nc2ccc(C(=O)c3ccc4c(-c5cc6nc7n(c6cc5C(F)(F)F)CCC7)cccn34)cc2C#N)CC1` [Example 31, (E)-N-(2-cyano-4-(8-(7-(trifluoromethyl)-2,3-dihydro-1H-benzo[d]pyrrolo[1,2-a]imidazol-6-yl)indolizine-3-carbonyl)phenyl)-4-(((1r,4r)-4-methoxycyclohexyl)amino)but-2-enamide]: the pIC50 in assay [1] was 7.59; in the assay on MIA PaCa-2 cells, 7.07. Besides, the binding rate entry in assay [2] was “A (A binding rate of 80% or more is rated “A”)”.
For `CO[C@H]1CC[C@H](NC/C=C/C(=O)Nc2ccc(C(=O)c3csc4c(-c5cc6ncn(C)c6cc5C)cccc34)cc2C#N)CC1` [Example 56, (E)-N-(2-cyano-4-(7-(1,6-dimethyl-1H-benzo[d]imidazol-5-yl)benzo[b]thiophene-3-carbonyl)phenyl)-4-(((1r,4r)-4-methoxycyclohexyl)amino)but-2-enamide], the negative logarithm of the IC50 (pIC50) in assay [1] is 7.07; in the assay with MIA PaCa-2 cells, 6.46. The binding rate result in assay [2] was “A (A binding rate of 80% or more is rated “A”)”.
`CCN(CC)[C@H]1CC[C@H](NC/C=C/C(=O)Nc2ccc(C(=O)Nc3cccc(-c4cc5nc6n(c5cc4C(F)(F)F)CCC6)n3)cc2C#N)CC1` [Example 37, 3-cyano-4-((E)-4-(((1r,4r)-4-(diethylamino)cyclohexyl)amino)but-2-enamido)-N-(6-(7-(trifluoromethyl)-2,3-dihydro-1H-benzo[d]pyrrolo[1,2-a]imidazol-6-yl)pyridin-2-yl)benzamide]: the pIC50 in assay [1] is 7.92; in the assay with MIA PaCa-2 cells, 6.26. Besides, the binding rate result in assay [2] was “A (A binding rate of 80% or more is rated “A”)”.
In the case of `Cn1cnc2cc(-c3cccn4c(C(=O)c5ccc(NC(=O)/C=C/CNC(C)(C)C)c(F)c5)ccc34)c(C(F)(F)F)cc21` [Example 51, (2E)-4-(tert-Butylamino)-N-(2-fluoro-4-{8-[1-methyl-6-(trifluoromethyl)-1H-1,3-benzodiazol-5-yl]indolizine-3-carbonyl}phenyl)but-2-enamide], the pIC50 in assay [1] was 7.02; in the assay on MIA PaCa-2 cells, 6.77. In assay [2], the binding rate entry was “B (a binding rate of 60% or more and less than 80% is rated “B”)”.
As for `CO[C@H]1CC[C@H](NC/C=C/C(=O)Nc2c(F)cc(C(=O)c3ccc4c(-c5cc6ncn(C)c6cc5C(F)(F)F)cccn34)cc2F)CC1` [Example 70, (E)-N-(2,6-difluoro-4-(8-(1-methyl-6-(trifluoromethyl)-1H-benzo[d]imidazol-5-yl)indolizine-3-carbonyl)phenyl)-4-(((1r,4r)-4-methoxycyclohexyl)amino)but-2-enamide], the results for the pIC50 (in assay [1]; with MIA PaCa-2 cells) were 7.57 and 7.14, respectively. In assay [2], the binding rate result was “A (A binding rate of 80% or more is rated “A”)”.
